Experimental data reported in ChEMBL document CHEMBL5038660, “Computational and Structure-Based Development of High Potent Cell-Active Covalent Inhibitor Targeting the Peptidyl-Prolyl Isomerase NIMA-Interacting-1 (Pin1)” (J Med Chem, 2022).
Blank lines part the entries; values can stand above or below the compound they belong to. Calls of active or inactive are those of the source. The calls are words filed in the database; no cut-off is given here.

How the values were obtained:
[1] = molecular target: T1, Peptidyl-prolyl cis-trans isomerase NIMA-interacting 1 (Homo sapiens, UniProt Q13526); assay: Displacement of 5-FITC-(Acp)-Bth-D-pThr-Pip-2-NaI-Q from N-terminal-GST-fused human Pin1 expressed in Escherichia coli BL21(DE3) incubated for 12 hrs by fluorescence polarization assay
[2] = molecular target: T1, Peptidyl-prolyl cis-trans isomerase NIMA-interacting 1; assay: Ratio of test compound IC50 to ZL-Pin01 IC50 for N-terminal-GST-fused human Pin1 expressed in Escherichia coli BL21(DE3) by fluorescence polarization assay
[3] = molecular target: T1, Peptidyl-prolyl cis-trans isomerase NIMA-interacting 1; assay: Displacement of 5-FITC-(Acp)-Bth-D-pThr-Pip-2-NaI-Q from N-terminal-GST-fused human Pin1 expressed in Escherichia coli BL21(DE3) at 20 to 50 uM incubated for 12 hrs by fluorescence polarization assay; settings: dose 20-50 µM
[4] = molecular target: T1, Peptidyl-prolyl cis-trans isomerase NIMA-interacting 1; assay: Covalent binding affinity to Cys113 residue of N-terminal His6-tagged human Pin1 expressed in Escherichia coli BL21 (DE3) incubated for overnight followed by tryptic digestion for 16 hrs by HPLC-nESI MS/MS scan analysis
[5] = system: MDA-MB-468; assay: Antiproliferative activity against human MDA-MB-468 cells assessed as reduction in cell viability incubated for 3 days by CellTiter-Glo luminescent assay; type: functional, cell-based; settings: MDA-MB-468, 72 h
[6] = molecular target: T1, Peptidyl-prolyl cis-trans isomerase NIMA-interacting 1; assay: Inhibition of Pin1 in human MDA-MB-231 cells assessed as reduction in C-MYC gene expression at 8 to 16 uM incubated for 24 hrs by qRT-PCR analysis; type: cell-based; settings: dose 8-16 µM
[7] = molecular target: T1, Peptidyl-prolyl cis-trans isomerase NIMA-interacting 1; assay: Covalent binding affinity to N-terminal His6-tagged human Pin1 expressed in Escherichia coli BL21 (DE3) assessed as increase in 292.1 Da molecular weight incubated for overnight by mass spectrometry
[8] = system: MDA-MB-231; assay: Antiproliferative activity against human MDA-MB-231 cells assessed as reduction in cell viability incubated for 3 days by CellTiter-Glo luminescent assay; type: functional, cell-based; settings: MDA-MB-231, 72 h
[9] = system: MDA-MB-231; assay: Inhibition of colony formation in human MDA-MB-231 cells at 0.63 to 10 uM incubated for 12 days with 48 hrs fresh compound replenishment by crystal violet staining based analysis; type: functional, cell-based; settings: dose 0.63-10 µM, time 12.0 day
[10] = molecular target: T1, Peptidyl-prolyl cis-trans isomerase NIMA-interacting 1; assay: Inhibition of Pin1 in human MDA-MB-231 cells assessed as reduction in MCL-1 gene expression at 8 to 16 uM incubated for 24 hrs by qRT-PCR analysis; type: cell-based; settings: dose 8-16 µM
[11] = molecular target: T1, Peptidyl-prolyl cis-trans isomerase NIMA-interacting 1; assay: Inhibition of Pin1 in human MDA-MB-231 cells assessed as reduction in CCND1 gene expression at 8 to 16 uM incubated for 24 hrs by qRT-PCR analysis; type: cell-based; settings: dose 8-16 µM
[12] = system: MDA-MB-468; assay: Inhibition of colony formation in human MDA-MB-468 cells at 0.63 to 10 uM incubated for 12 days with 48 hrs fresh compound replenishment by crystal violet staining based analysis; type: functional, cell-based; settings: dose 0.63-10 µM, time 12.0 day
[13] = molecular target: T1, Peptidyl-prolyl cis-trans isomerase NIMA-interacting 1; assay: Covalent binding affinity to N-terminal His6-tagged human Pin1 expressed in Escherichia coli BL21 (DE3) incubated for overnight by mass spectrometry
[14] = system: MDA-MB-231; assay: Downregulation of MCL-1 protein expression in human MDA-MB-231 cells transfected with PIN1 siRNA at 5 to 10 uM by western blot analysis; type: functional, cell-based; settings: dose 5-10 µM
[15] = system: MDA-MB-468; assay: Antiproliferative activity against human MDA-MB-468 cells assessed as reduction in cell viability incubated for 8 days with 48 hrs fresh compound replenishment by CellTiter-Glo luminescent assay; type: functional, cell-based; settings: time 8.0 day
[16] = molecular target: T1, Peptidyl-prolyl cis-trans isomerase NIMA-interacting 1; assay: Inhibition of Pin1 in human MDA-MB-231 cells assessed as reduction in C-MYC gene expression incubated for 24 hrs by qRT-PCR analysis; type: cell-based; settings: dose 4-8 µM
[17] = molecular target: T1, Peptidyl-prolyl cis-trans isomerase NIMA-interacting 1; assay: Inhibition of Pin1 in human MDA-MB-231 cells assessed as reduction in c-Myc level at 5 to 10 uM by western blot analysis; type: cell-based; settings: dose 5-10 µM
[18] = system: Peptidyl-prolyl cis-trans isomerase NIMA-interacting 1 (Homo sapiens), Q13526 [C113A]; assay: Covalent binding affinity to N-terminal His6-tagged human Pin1 C113A mutant expressed in Escherichia coli BL21(DE3) at compound:protein ratio of 3:1 to 5:1 incubated for overnight by mass spectrometry
[19] = system: MDA-MB-231; assay: Downregulation of MCL-1 gene expression in PIN-1 knockout human MDA-MB-231 cells at 4 to 8 uM incubated for 24 hrs by qRT-PCR analysis; type: functional, cell-based; settings: dose 4-8 µM
[20] = system: MDA-MB-231; assay: Inhibition of colony formation in human MDA-MB-231 cells at 0.25 to 4 uM incubated for 12 days with 48 hrs fresh compound replenishment by crystal violet staining based analysis; type: functional, cell-based; settings: dose 0.25-4 µM, time 12.0 day
[21] = molecular target: T1, Peptidyl-prolyl cis-trans isomerase NIMA-interacting 1; assay: Displacement of 5-FITC-(Acp)-Bth-D-pThr-Pip-2-NaI-Q from N-terminal-GST-fused human Pin1 expressed in Escherichia coli BL21(DE3) assessed as Kinact/Ki ratio incubated for 12 hrs by fluorescence polarization assay
[22] = molecular target: T1, Peptidyl-prolyl cis-trans isomerase NIMA-interacting 1; assay: Covalent binding affinity to N-terminal His6-tagged human Pin1 expressed in Escherichia coli BL21 (DE3) assessed as increase in 418.16 Da molecular weight incubated for overnight by mass spectrometry
[23] = system: Peptidyl-prolyl cis-trans isomerase NIMA-interacting 1 (Homo sapiens), Q13526 [C113A]; assay: Displacement of 5-FITC-(Acp)-Bth-D-pThr-Pip-2-NaI-Q from human Pin1 C113A mutant expressed in Escherichia coli BL21(DE3) incubated for 12 hrs by fluorescence polarization assay
[24] = molecular target: T1, Peptidyl-prolyl cis-trans isomerase NIMA-interacting 1; assay: Inhibition of Pin1 in human MDA-MB-231 cells assessed as reduction in MCL-1 level at 5 to 10 uM by western blot analysis; type: cell-based; settings: dose 5-10 µM
[25] = molecular target: T1, Peptidyl-prolyl cis-trans isomerase NIMA-interacting 1; assay: Inhibition of Pin1 in human MDA-MB-231 cells assessed as reduction in CCND1 gene expression incubated for 24 hrs by qRT-PCR analysis; type: cell-based; settings: dose 4-8 µM
[26] = system: MDA-MB-231; assay: Downregulation of cyclin D1 protein expression in human MDA-MB-231 cells transfected with PIN1 siRNA at 5 to 10 uM by western blot analysis; type: functional, cell-based; settings: dose 5-10 µM
[27] = system: MDA-MB-468; assay: Inhibition of colony formation in human MDA-MB-468 cells at 0.25 to 4 uM incubated for 12 days with 48 hrs fresh compound replenishment by crystal violet staining based analysis; type: functional, cell-based; settings: dose 0.25-4 µM, time 12.0 day
[28] = system: MDA-MB-231; assay: Downregulation of CCND1 gene expression in PIN-1 knockout human MDA-MB-231 cells at 4 to 8 uM incubated for 24 hrs by qRT-PCR analysis; type: functional, cell-based; settings: dose 4-8 µM
[29] = molecular target: T1, Peptidyl-prolyl cis-trans isomerase NIMA-interacting 1; assay: Inhibition of Pin1 in human MDA-MB-231 cells assessed as induction of Pin1 degradation incubated for 16 hrs by immunoblot analysis; type: cell-based; settings: dose 2.5-15 µM
[30] = molecular target: T1, Peptidyl-prolyl cis-trans isomerase NIMA-interacting 1; assay: Inhibition of Pin1 in human MDA-MB-231 cells assessed as reduction in cyclin D1 level at 5 to 10 uM by western blot analysis; type: cell-based; settings: dose 5-10 µM
[31] = molecular target: T1, Peptidyl-prolyl cis-trans isomerase NIMA-interacting 1; assay: Displacement of 5-FITC-(Acp)-Bth-D-pThr-Pip-2-NaI-Q from N-terminal-GST-fused human Pin1 expressed in Escherichia coli BL21(DE3) assessed as maximum rate of inactivation incubated for 12 hrs by fluorescence polarization assay
[32] = organism: Homo sapiens; assay: Displacement of 5-FITC-(Acp)-Bth-D-pThr-Pip-2-NaI-Q from human Pin1 C57A mutant expressed in Escherichia coli BL21(DE3) incubated for 12 hrs by fluorescence polarization assay
[33] = system: MDA-MB-231; assay: Downregulation of c-Myc protein expression in human MDA-MB-231 cells transfected with PIN1 siRNA at 5 to 10 uM by western blot analysis; type: functional, cell-based; settings: dose 5-10 µM
[34] = molecular target: T1, Peptidyl-prolyl cis-trans isomerase NIMA-interacting 1; assay: Inhibition of Pin1 in human MDA-MB-231 cells assessed as reduction in MCL-1 gene expression incubated for 24 hrs by qRT-PCR analysis; type: cell-based; settings: dose 4-8 µM
[35] = system: MDA-MB-231; assay: Downregulation of C-MYC gene expression in PIN-1 knockout human MDA-MB-231 cells at 4 to 8 uM incubated for 24 hrs by qRT-PCR analysis; type: functional, cell-based; settings: dose 4-8 µM

Compound: O=C(CCl)N1CCC2(CC1)SCC(=O)N2CCc1ccc(-c2ccccc2)o1
IC50 [1]: 1060 nM | Ratio IC50 [2]: 0.8

Compound: O=C(CCl)N1CCC2(CC1)SCC(=O)N2Cc1ccc(-c2ccc(C(F)(F)F)cc2)o1
IC50 [1]: 720 nM | Ratio IC50 [2]: 0.54

Compound: Cc1cccc(N2C(=O)CSC23CCN(C(=O)CCl)CC3)c1
inhibition [3]: > 50%

Compound: CC(Cl)C(=O)N1CCC2(CC1)SCC(=O)N2Cc1ccc(-c2ccccc2)o1 (centres undefined)
IC50 [1]: > 100000 nM | Ratio IC50 [2]: > 10

Compound: C=CC(=O)N1CCC2(CC1)SCC(=O)N2Cc1ccc(-c2ccccc2)o1
IC50 [1]: > 100000 nM | Ratio IC50 [2]: > 10

Compound: O=C(CCl)N1CCC2(CC1)SCC(=O)N2Cc1ccco1
Activity [4]: Active | IC50 [5]: 8600 nM | inhibition [6]: Active | Activity [7]: Active | IC50 [8]: 12800 nM | IC50 [1]: 1330 nM | inhibition [9]: Active | inhibition [10]: Active | inhibition [11]: Active | inhibition [12]: Active | inhibition [3]: > 50% | Activity [13]: 100%

Compound: O=C(CCl)N1CCC2(CC1)SCC(=O)N2Cc1ccc(-c2ccc(-c3ccccc3)cc2)o1
IC50 [1]: 1320 nM | Ratio IC50 [2]: 1

Compound: CC(=O)N1CCC2(CC1)SCC(=O)N2Cc1ccco1
IC50 [1]: > 100000 nM | Ratio IC50 [2]: > 10

Compound: CC(=O)N1CCC2(CC1)SCC(=O)N2Cc1ccc(-c2cccc3ccccc23)o1
IC50 [1]: > 100000 nM | Ratio IC50 [2]: > 10

Compound: Cc1ccc(N2C(=O)CSC23CCN(C(=O)CCl)CC3)cc1
inhibition [3]: > 50%

Compound: O=C(CCl)N1CCC2(CC1)SCC(=O)N2c1ccc(Cl)cc1
inhibition [3]: > 50%

Compound: O=C(CCl)N1CCC2(CC1)SCC(=O)N2Cc1ccccc1
inhibition [3]: > 50%

Now from value to compound, other results behind:

IC50 [1]: 440 nM | Ratio IC50 [2]: 0.33
Compound: N#Cc1ccc(-c2ccc(CN3C(=O)CSC34CCN(C(=O)CCl)CC4)o2)cc1

IC50 [1]: 380 nM | Ratio IC50 [2]: 0.29
Compound: O=C(CCl)N1CCC2(CC1)SCC(=O)N2Cc1ccc(-c2ccc3ccccc3c2)o1

IC50 [1]: 260 nM | Ratio IC50 [2]: 0.2
Compound: O=C(CCl)N1CCC2(CC1)SCC(=O)N2Cc1ccc(-c2ccccc2)o1

IC50 [1]: 250 nM | Ratio IC50 [2]: 0.19
Compound: COc1ccc(-c2ccc(CN3C(=O)CSC34CCN(C(=O)CCl)CC4)o2)cc1

IC50 [1]: 270 nM | Ratio IC50 [2]: 0.2
Compound: Cc1ccc(-c2ccc(CN3C(=O)CSC34CCN(C(=O)CCl)CC4)o2)cc1

Activity [4]: Active | inhibition [16]: Dose-Dependent Effect | IC50 [5]: 1900 nM | inhibition [17]: Active | Activity [18]: inactive | IC50 [8]: 2800 nM | IC50 [1]: 67 nM | Ratio [21]: 27.1 M⁻¹ s⁻¹ | Activity [22]: Active | inhibition [23]: inactive | inhibition [24]: Active | inhibition [25]: Dose-Dependent Effect | Ratio IC50 [2]: 0.05 | Activity [13]: 100% | inhibition [29]: Dose-Dependent Effect | inhibition [30]: Active | Kinact [31]: 0.058 min⁻¹ | inhibition [32]: Active | inhibition [34]: Dose-Dependent Effect
Compound: O=C(CCl)N1CCC2(CC1)SCC(=O)N2Cc1ccc(-c2cccc3ccccc23)o1
inhibition [14]: inactive | Activity [15]: Active | inhibition [19]: inactive | inhibition [20]: Active | inhibition [26]: inactive | inhibition [27]: Active | inhibition [28]: inactive | inhibition [33]: inactive | inhibition [35]: inactive

IC50 [1]: 610 nM | Ratio IC50 [2]: 0.46
Compound: O=C(CCl)N1CCC2(CC1)SCC(=O)N2Cc1ccc(Br)o1

IC50 [1]: 560 nM | Ratio IC50 [2]: 0.42
Compound: O=C(CCl)N1CCC2(CC1)SCC(=O)N2Cc1ccc(Cl)o1

IC50 [1]: 360 nM | Ratio IC50 [2]: 0.27
Compound: CS(=O)(=O)c1ccc(-c2ccc(CN3C(=O)CSC34CCN(C(=O)CCl)CC4)o2)cc1
